Assays:
Assay in all cases: cell-based
Design in all cases: functional GPCR antagonist screen (Eurofins Cerep), percent inhibition of control agonist response
Conditions in all cases: antagonist effect, against control agonist; read-out: % Inhibition of Control Agonist Response, Mean
MCH1 (h) = target: T1, MCH1 (h) (Homo sapiens, UniProt Q99705)
T1 construct: gene MCHR1

IP (PGI2) (h) = target: T2, IP (PGI2) (h) (Homo sapiens, UniProt P43119)
T2 construct: gene PTGIR

EP4 (h) = target: T3, EP4 (h) (Homo sapiens, UniProt P35408)
T3 construct: gene PTGER4

δ (DOP) (h) = target: T4, δ (DOP) (h) (Homo sapiens, UniProt P41143)
T4 construct: gene OPRD1

M5 (h) = target: T5, M5 (h) (Homo sapiens, UniProt P08912)
T5 construct: gene CHRM5

S1P5 (h) = target: T6, S1P5 (h) (Homo sapiens, UniProt Q9H228)
T6 construct: gene S1PR5

MT1 (ML1A) (h) = target: T7, MT1 (ML1A) (h) (Homo sapiens, UniProt P48039)
T7 construct: gene MTNR1A

P2Y1 (h) = target: T8, P2Y1 (h) (Homo sapiens, UniProt P47900)
T8 construct: gene P2RY1

EP1 (h) = target: T9, EP1 (h) (Homo sapiens, UniProt P34995)
T9 construct: gene PTGER1

PAR1 (h) = target: T10, PAR1 (h) (Homo sapiens, UniProt P25116)
T10 construct: gene F2R

MrgD (h) = target: T11, MrgD (h) (Homo sapiens, UniProt Q8TDS7)
T11 construct: gene MRGPRD

MRGX2 / MGRPLX2 (h) = target: T12, MRGX2 / MGRPLX2 (h) (Homo sapiens, UniProt Q96LB1)
T12 construct: gene MRGPRX2

OX2 (h) = target: T13, OX2 (h) (Homo sapiens, UniProt O43614)
T13 construct: gene HCRTR2

FP (h) = target: T14, FP (h) (Homo sapiens, UniProt P43088)
T14 construct: gene PTGFR

PK1 (h) = target: T15, PK1 (h) (Homo sapiens, UniProt Q8TCW9)
T15 construct: gene PROKR1

NTS1 (NT1) (h) = target: T16, NTS1 (NT1) (h) (Homo sapiens, UniProt P30989)
T16 construct: gene NTSR1

MCH2 (h) = target: T17, MCH2 (h) (Homo sapiens, UniProt Q969V1)
T17 construct: gene MCHR2

LPA1(h) = target: T18, LPA1(h) (Homo sapiens, UniProt Q92633)
T18 construct: gene LPAR1

NOP (h) (ORL1) = target: T19, NOP (h) (ORL1) (Homo sapiens, UniProt P41146)
T19 construct: gene OPRL1

LPA2 (h) = target: T20, LPA2 (h) (Homo sapiens, UniProt Q9HBW0)
T20 construct: gene LPAR2

EP3 (h) = target: T21, EP3 (h) (Homo sapiens, UniProt P43115)
T21 construct: gene PTGER3

MC4 (h) = target: T22, MC4 (h) (Homo sapiens, UniProt P32245)
T22 construct: gene MC4R

NK2 (h) = target: T23, NK2 (h) (Homo sapiens, UniProt P21452)
T23 construct: gene TACR2

MT2 (ML1B) (h) = target: T24, MT2 (ML1B) (h) (Homo sapiens, UniProt P49286)
T24 construct: gene MTNR1B
T24 sequence (P49286 whole entry): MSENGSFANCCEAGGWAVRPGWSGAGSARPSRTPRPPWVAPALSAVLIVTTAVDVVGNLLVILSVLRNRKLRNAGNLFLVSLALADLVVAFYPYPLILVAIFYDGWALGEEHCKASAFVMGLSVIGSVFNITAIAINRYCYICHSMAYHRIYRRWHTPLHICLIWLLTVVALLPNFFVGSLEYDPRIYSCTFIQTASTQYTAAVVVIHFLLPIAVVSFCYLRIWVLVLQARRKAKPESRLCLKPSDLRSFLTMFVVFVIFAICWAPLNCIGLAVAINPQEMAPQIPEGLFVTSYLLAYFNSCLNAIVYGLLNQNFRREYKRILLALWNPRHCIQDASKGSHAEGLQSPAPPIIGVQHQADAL

T8 sequence (P47900 whole entry): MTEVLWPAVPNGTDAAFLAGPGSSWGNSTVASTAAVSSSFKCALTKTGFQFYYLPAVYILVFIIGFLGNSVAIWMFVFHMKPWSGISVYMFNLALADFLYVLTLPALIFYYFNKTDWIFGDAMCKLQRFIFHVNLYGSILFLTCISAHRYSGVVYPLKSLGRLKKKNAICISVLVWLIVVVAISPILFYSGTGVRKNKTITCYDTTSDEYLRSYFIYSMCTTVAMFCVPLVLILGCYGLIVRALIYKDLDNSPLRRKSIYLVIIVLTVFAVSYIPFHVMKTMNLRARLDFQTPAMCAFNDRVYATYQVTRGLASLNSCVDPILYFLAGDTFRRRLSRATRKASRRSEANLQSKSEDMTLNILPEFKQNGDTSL
T11 sequence (Q8TDS7 whole entry): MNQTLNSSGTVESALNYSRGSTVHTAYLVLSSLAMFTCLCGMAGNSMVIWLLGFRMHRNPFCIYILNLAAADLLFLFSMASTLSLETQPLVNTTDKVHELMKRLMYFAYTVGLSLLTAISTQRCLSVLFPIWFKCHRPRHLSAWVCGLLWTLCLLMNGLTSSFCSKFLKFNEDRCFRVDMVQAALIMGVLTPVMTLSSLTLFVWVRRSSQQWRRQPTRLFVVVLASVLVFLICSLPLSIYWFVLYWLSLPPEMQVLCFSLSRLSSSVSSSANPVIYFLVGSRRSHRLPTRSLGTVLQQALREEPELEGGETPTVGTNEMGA
T10 sequence (P25116 whole entry): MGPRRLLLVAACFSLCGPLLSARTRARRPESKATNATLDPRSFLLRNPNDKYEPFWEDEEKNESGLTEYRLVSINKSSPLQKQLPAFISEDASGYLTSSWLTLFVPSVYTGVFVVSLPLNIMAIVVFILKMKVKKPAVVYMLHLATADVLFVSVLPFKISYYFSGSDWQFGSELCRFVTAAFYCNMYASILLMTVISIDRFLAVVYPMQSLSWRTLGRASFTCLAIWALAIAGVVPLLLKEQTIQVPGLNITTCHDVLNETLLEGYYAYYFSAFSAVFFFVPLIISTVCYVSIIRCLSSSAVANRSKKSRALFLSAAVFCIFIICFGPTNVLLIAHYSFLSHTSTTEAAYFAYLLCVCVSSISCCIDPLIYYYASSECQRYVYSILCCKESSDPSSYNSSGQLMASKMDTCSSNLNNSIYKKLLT
T4 sequence (P41143 whole entry): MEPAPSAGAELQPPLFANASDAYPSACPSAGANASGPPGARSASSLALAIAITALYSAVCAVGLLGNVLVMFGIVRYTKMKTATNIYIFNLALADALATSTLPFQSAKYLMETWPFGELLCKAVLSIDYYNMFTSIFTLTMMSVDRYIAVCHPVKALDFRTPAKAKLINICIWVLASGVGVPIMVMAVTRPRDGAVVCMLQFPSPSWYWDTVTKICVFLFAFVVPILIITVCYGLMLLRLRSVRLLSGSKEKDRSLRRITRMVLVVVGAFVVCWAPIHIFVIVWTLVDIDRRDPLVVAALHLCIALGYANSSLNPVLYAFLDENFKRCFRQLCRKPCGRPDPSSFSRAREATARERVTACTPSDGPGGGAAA
T17 sequence (Q969V1 whole entry): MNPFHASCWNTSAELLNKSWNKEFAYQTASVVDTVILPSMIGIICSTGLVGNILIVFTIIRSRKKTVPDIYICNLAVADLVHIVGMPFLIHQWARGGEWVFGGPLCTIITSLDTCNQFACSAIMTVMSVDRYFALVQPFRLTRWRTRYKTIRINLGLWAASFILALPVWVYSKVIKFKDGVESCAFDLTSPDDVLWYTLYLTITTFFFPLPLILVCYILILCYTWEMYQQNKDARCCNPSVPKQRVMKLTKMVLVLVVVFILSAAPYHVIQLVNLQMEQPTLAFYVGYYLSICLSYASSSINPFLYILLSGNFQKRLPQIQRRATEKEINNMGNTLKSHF
T3 sequence (P35408 whole entry): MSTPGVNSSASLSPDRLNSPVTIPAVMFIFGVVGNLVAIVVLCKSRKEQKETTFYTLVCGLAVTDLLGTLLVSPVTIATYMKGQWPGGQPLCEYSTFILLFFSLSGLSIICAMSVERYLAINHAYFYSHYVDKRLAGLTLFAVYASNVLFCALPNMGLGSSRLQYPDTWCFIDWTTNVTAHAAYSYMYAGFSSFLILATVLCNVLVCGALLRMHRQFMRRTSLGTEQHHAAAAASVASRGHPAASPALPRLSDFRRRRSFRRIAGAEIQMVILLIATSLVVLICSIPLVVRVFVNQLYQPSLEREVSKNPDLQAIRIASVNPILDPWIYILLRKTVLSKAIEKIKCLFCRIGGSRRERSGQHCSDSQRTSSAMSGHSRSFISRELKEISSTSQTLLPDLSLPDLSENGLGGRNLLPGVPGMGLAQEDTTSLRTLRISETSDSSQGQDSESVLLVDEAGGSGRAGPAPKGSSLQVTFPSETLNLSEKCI
T2 sequence (P43119 whole entry): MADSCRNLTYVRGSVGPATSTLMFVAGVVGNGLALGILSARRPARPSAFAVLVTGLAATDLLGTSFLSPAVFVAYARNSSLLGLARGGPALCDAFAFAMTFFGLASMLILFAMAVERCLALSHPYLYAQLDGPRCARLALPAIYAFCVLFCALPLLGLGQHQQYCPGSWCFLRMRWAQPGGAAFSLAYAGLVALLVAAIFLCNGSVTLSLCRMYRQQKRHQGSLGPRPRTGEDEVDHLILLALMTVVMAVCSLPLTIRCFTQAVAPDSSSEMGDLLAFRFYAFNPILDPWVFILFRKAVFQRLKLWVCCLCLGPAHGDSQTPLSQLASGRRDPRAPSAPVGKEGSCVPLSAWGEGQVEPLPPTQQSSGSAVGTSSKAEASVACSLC
T14 sequence (P43088 whole entry): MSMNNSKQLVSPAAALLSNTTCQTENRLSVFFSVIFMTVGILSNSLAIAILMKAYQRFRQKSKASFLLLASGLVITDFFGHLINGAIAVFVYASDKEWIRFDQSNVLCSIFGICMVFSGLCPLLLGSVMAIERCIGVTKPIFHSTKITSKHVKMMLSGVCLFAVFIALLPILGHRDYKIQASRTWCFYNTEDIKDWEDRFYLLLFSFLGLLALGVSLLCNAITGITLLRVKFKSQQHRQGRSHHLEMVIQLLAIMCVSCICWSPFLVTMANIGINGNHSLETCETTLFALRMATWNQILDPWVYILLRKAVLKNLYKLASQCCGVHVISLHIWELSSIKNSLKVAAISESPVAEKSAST
T13 sequence (O43614 whole entry): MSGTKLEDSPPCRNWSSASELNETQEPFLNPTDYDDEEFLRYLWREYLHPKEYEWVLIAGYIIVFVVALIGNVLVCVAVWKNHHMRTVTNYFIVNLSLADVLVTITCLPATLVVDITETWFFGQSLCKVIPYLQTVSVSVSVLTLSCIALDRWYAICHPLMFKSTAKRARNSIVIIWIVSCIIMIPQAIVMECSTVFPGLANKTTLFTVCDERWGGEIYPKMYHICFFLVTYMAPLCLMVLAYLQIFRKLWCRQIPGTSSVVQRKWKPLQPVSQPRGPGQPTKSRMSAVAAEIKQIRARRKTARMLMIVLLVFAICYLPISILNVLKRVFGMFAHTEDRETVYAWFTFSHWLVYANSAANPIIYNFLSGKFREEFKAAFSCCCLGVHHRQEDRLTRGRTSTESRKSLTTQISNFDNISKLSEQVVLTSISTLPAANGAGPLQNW
T23 sequence (P21452 whole entry): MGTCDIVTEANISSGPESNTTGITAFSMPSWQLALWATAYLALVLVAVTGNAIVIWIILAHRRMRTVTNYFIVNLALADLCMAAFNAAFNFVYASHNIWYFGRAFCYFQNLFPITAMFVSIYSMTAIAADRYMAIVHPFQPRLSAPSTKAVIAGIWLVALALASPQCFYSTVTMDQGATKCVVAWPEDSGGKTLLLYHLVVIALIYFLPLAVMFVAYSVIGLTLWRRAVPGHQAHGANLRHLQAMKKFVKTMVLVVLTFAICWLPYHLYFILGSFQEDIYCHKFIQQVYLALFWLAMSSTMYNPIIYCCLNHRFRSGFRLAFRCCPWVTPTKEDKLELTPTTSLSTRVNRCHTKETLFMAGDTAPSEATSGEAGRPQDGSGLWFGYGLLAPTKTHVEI
T15 sequence (Q8TCW9 whole entry): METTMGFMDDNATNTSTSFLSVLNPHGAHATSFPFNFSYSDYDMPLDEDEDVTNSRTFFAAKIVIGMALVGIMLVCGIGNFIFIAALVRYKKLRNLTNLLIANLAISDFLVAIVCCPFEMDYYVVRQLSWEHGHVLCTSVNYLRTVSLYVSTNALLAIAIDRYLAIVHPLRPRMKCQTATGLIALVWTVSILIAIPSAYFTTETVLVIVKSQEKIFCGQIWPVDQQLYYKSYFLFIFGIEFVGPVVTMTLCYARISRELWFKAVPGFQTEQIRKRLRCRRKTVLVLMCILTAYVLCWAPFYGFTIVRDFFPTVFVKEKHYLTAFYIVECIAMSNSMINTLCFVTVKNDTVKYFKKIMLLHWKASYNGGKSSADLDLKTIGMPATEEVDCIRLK

[O-][S@@+](Cc1cncs1)C(c1ccccc1)c1ccccc1 [S-CE-123, (S)-5-((Benzhydrylsulfinyl)Methyl)Thiazole]
inhibition at 2.8 µM (MCH1 (h)): -0.9% | inhibition at 2.8 µM (IP (PGI2) (h)): 16.3% | inhibition at 2.8 µM (EP4 (h)): -1.5% | inhibition at 2.8 µM (δ (DOP) (h)): -2.8% | inhibition at 2.8 µM (M5 (h)): -5.9% | inhibition at 2.8 µM (S1P5 (h)): 3.7% | inhibition at 2.8 µM (MT1 (ML1A) (h)): 7.6% | inhibition at 2.8 µM (P2Y1 (h)): -6.7% | inhibition at 2.8 µM (EP1 (h)): -11.9% | inhibition at 2.8 µM (PAR1 (h)): 2.1% | inhibition at 2.8 µM (MrgD (h)): 30% | inhibition at 2.8 µM (MRGX2 / MGRPLX2 (h)): 7.1% | inhibition at 2.8 µM (OX2 (h)): 4.2% | inhibition at 2.8 µM (FP (h)): 6.7% | inhibition at 2.8 µM (PK1 (h)): 2.5% | inhibition at 2.8 µM (NTS1 (NT1) (h)): -10% | inhibition at 2.8 µM (MCH2 (h)): 3.1% | inhibition at 2.8 µM (LPA1(h)): 4.4% | inhibition at 2.8 µM (NOP (h) (ORL1)): 18.4% | inhibition at 2.8 µM (LPA2 (h)): -10.9% | inhibition at 2.8 µM (EP3 (h)): -30.8% | inhibition at 2.8 µM (MC4 (h)): 2.3% | inhibition at 2.8 µM (NK2 (h)): -0.8% | inhibition at 2.8 µM (MT2 (ML1B) (h)): 6.2%
